Measurements reported in patent US5834244A, “Factor VIIa inhibitors from Kunitz domain proteins” (Genentech, Inc., priority 1995, dated 1998).
Where two headings read alike, the source gives them in different places. Positions of bridges follow the written chain, without caps; N, C: chain ends. No end group written: not given here.

Columns and labels:
[1] = tested on: Male New Zealand white rabbits; assay: Cuticle bleeding time assay; assay type: in vivo, rabbit; details: for bleeding compared to the saline control (in words): after 10 minutes
Protocol: (§1) Male New Zealand white rabbits (~4 kg) were anesthetized to surgical anesthesia plane with an IM injection of Ketamine / Xylaxine. The rabbits were placed supine on a restraining board, warmed to 37° C., and the neck and inner thigh area shaved. Teflon catheters were replaced in a marginal ear vein and femoral artery for drug delivery and sample collection respectively. Prior to treatment, blood samples were collected for coagulation tests (APTT and PT). Bleeding time was assessed from a cut made in the cuticle portion of a hind limb nail. Incisions were made in the neck region and the entire left common carotid artery and its branches were surgically isolated. An ultrasonic flow probe (Transonics®) was placed on the common carotid approximately 5 cm caudal to the common--internal bifurcation. After blood flow reached a stable baseline, drugs (saline or test compounds) were delivered via the marginal ear vein. A deflated embolectomy catheter (Fogarty®, 3F) was then introduced into the lumen of the common via an incision in the lingual branch. Blood flow through the artery was stopped briefly while the catheter was introduced and loosely secured with 2-0 silk tie at the incision site. After the catheter was in place and secure, blood flow was restored. The deflated balloon was advanced to within 2 mm of the flow probe and inflated with saline until resistance of the vessel wall was felt. The catheter was pulled back with a steady motion to the first branch and then deflated. This procedure was repeated a total of six times for each experimental animal, after which the catheter was removed. […] Over 40 minutes, blood samples were taken for APTT and PT measurements, cuticle bleeding times were assessed and blood flow through the carotid monitored. Duration of patency was defined as the total amount of time (maximum=40 minutes) that any measurable blood flow is detected in the artery. Patency rate refers to the percentage of animals tested who had carotid artery blood flow ≥5 minutes. At the end of the experiment the rabbit was euthanized and the carotid artery removed and opened. If any thrombus was present, it was removed, blotted and the weight recorded.
Table 3 below describes the results of the cuticle bleeding time assay at 10 minutes after dosing.

TF-FVIIa = target: T1, TF-FVIIa (Homo sapiens, UniProt P08709); assay: Enzyme inhibition assay, apparent equilibrium dissociation constant (Ki*) with TF-FVIIa; assay type: biochemical
T1 construct: is generated by proteolysis of a single peptide bond from its zymogen Factor VII (FVII); purchased Haematologic Technologies Inc. (FVIIa); TF1-243 made in house in E. coli; host or cells: E. coli (TF1-243)
Protocol: Aliquots (25 μL) from each well of a microtiter plate containing the serially diluted inhibitors were transferred into new microtiter plates, each containing a different protease (100 μL) in the appropriate buffer. The proteases tested (protease concentration, buffer, substrate) were FVIIa (10 nM, Buffer A, 0.7 mM S2366), FXIa (1.0 nM, Buffer B containing 1 mg/ml BSA, 0.7 mM S2366), plasma kallikrein (3.5 nM, Buffer B, 0.5 mM S2302), and plasmin (15 nM, Buffer B, 1 mM S2251).

normal human plasma = assay: Activated partial thromboplastin time (APTT) assay, initiated by ellagic acid; assay type: biochemical
Protocol: For the activated partial thromboplastin time (APTT) assays, the activation time was set at 120 sec and acquisition time at 300 to 600 sec depending on the expected outcome of the assay. Citrated normal human plasma and inhibitor were incubated together. The sample (plasma and inhibitor) and activator (Instrumentation Laboratories Ellagic acid/Phospholipid mix Test Reagent) were automatically pipetted and incubated together for 2 min at 37° C., then CaCl2 was added and clotting time determined by means of optical assessment. The total incubation time of inhibitor with plasma was ca. 3 min before addition of activator, and 5 min before addition of CaCl2.

rabbit plasma [2] = assay: APTT clotting time in rabbit plasma; assay type: biochemical; details: 40 μM
Protocol: (§2) Samples of rabbit plasma were assayed using an MLA 800 coagulometer and Dade reagents. Actin FS® was the activator in the APTT assay. Rabbit Thromboplastin with Ca++ was used for the PT assays; the rabbit thromboplastin was diluted two-fold. All mutant inhibitors tested prolonged clotting by at least one fold. […] A greater than 10 fold prolongation of the clotting time at 40μM was observed.

rabbit plasma [3] = assay: PT clotting time in rabbit plasma; assay type: biochemical; details: 40 μM
Protocol: as §2

[4] = tested on: Male New Zealand white rabbits; assay: Rabbit deep medial injury model (carotid artery patency, thrombus weight); assay type: in vivo; details: for Duration (Min.) of patency / Clot (mps): mean ± sem
Protocol: as §1

[5] = Heparin 1: 25 u/kg bolus then 0.5 u/kg/min infusion
[6] = Heparin 2: 25 u/kg bolus then 1 u/kg/min infusion

T1 sequence (P08709 213-466 limits assumed): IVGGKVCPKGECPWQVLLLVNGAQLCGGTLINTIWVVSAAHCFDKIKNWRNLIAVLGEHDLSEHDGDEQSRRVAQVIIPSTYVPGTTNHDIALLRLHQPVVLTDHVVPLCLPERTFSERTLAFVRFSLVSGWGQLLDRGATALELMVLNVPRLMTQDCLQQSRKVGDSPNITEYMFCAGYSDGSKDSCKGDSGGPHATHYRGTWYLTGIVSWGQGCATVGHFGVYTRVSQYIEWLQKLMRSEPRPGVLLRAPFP
T1 sequence (P08709 61-212 limits assumed): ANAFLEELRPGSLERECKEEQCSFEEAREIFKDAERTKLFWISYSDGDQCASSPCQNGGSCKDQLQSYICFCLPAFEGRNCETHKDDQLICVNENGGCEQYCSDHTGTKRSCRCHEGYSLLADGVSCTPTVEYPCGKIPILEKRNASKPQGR
T1 sequence (P13726 33-275 partner limits assumed): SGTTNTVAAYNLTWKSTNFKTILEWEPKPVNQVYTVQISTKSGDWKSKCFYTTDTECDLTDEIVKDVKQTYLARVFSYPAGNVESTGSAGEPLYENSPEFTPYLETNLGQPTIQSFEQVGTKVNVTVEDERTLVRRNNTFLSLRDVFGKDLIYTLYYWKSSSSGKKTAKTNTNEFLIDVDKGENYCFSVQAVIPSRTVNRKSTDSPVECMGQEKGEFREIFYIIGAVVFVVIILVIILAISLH

CC[C@H](C)[C@@H]1NC(=O)[C@H](CC(C)C)NC(=O)[C@H](C)NC(=O)[C@H](CCCNC(=N)N)NC(=O)[C@@H]2CSSC[C@@H]3NC(=O)CNC(=O)CNC(=O)[C@H](Cc4ccc(O)cc4)NC(=O)[C@H](Cc4ccccc4)NC(=O)[C@H](Cc4ccccc4)NC(=O)[C@@H]4CCCN4C(=O)[C@H](C)NC(=O)[C@H](CSSC[C@H](NC(=O)[C@H](Cc4ccc(O)cc4)NC(=O)[C@H](CCC(=O)O)NC(=O)[C@H](CCC(=O)O)NC(=O)[C@H]([C@@H](C)O)NC(=O)[C@H](CC(=O)O)NC(=O)[C@H](Cc4ccccc4)NC(=O)[C@H](CC(N)=O)NC(=O)[C@H](CC(N)=O)NC(=O)[C@H](CCCNC(=N)N)NC(=O)[C@H](CC(N)=O)NC(=O)CNC(=O)[C@H](Cc4ccc(O)cc4)NC3=O)C(=O)N[C@@H](C)C(=O)N[C@@H](C)C(=O)N[C@@H](C(C)C)C(=O)N[C@H](C(=O)NCC(=O)N[C@@H](CO)C(=O)N[C@@H](C)C(=O)O)CSSC[C@H](NC(=O)[C@@H](NC(=O)[C@H](CCC(=O)O)NC(=O)[C@H](CCCNC(=N)N)NC(=O)[C@@H](N)C(C)C)C(C)C)C(=O)N[C@@H](CO)C(=O)N[C@@H](CCC(=O)O)C(=O)N[C@@H](CCC(N)=O)C(=O)N[C@@H](C)C(=O)N[C@@H](CCC(=O)O)C(=O)N3CCC[C@H]3C(=O)NCC(=O)N3CCC[C@H]3C(=O)N2)NC(=O)[C@H](CCCCN)NC(=O)CNC(=O)[C@H](CCC(=O)O)NC(=O)[C@H]([C@@H](C)O)NC(=O)[C@H](C(C)C)NC(=O)[C@H](CC(=O)O)NC(=O)[C@H](Cc2ccccc2)NC(=O)[C@H](Cc2ccc(O)cc2)NC(=O)[C@H](Cc2c[nH]c3ccccc23)NC(=O)[C@H](CCCNC(=N)N)NC(=O)[C@H](CC(C)C)NC1=O [TF7I-C]
bleeding compared to the saline control (in words) [1]: did not induce prolonged bleeding

APPI: Alzheimer's amyloid β-protein precursor inhibitor, wild type Kunitz domain (58 residues, SEQ ID NO: 34) (VREVCSEQAETGPCRAMISRWYFDVTEGKCAPFFYGGCGGNRNNFDTEEYCMAVCGSA)
inhibition of TF-FVIIa (in words) (TF-FVIIa): moderate inhibitor
Ki (TF-FVIIa; FVIIa 10 nM and TF1-243 50 nM, representative of nine (TF7I-C) and seven (APPI) determinations, read-out: Ki* with TF-FVIIa (FIG. 5, representative determination)): 0.3 µM
Ki (TF-FVIIa; FVIIa 10 nM, TF1-243, S2366, pH 7.5, read-out: apparent equilibrium dissociation constant Ki* with TF-FVIIa): 0.301 ± 0.044 µM
APTT clotting time, fold prolongation (normal human plasma; 40 μM inhibitor, uninhibited 31 s): 3.6 fold
APTT clotting time, fold prolongation (normal human plasma; ca. 7 μM inhibitor): ca. 3 fold
APTT, fold increase over baseline (rabbit plasma [2]): 4.9 fold
PT, fold increase over baseline (rabbit plasma [3]): 1.4 fold
Patency (%) ([4]; 2 mg/kg IV bolus, animals with carotid blood flow ≥5 minutes): 40%
Duration (Min.) of patency ([4]; 2 mg/kg IV bolus, maximum 40 minutes): 13.4 ± 8.5 min
Clot (mps) ([4]; 2 mg/kg IV bolus, thrombus weight): 49.5 ± 18.2 mps
Cuticle bleeding time, fold increase over pre dose ([1]; rabbit, in vivo, iv, 2 mg/kg): 2.2 ± 0.6 fold

Heparin
Patency (%) [4, 5]: 67%
Clot (mps) [4, 5]: 13.6 ± 4.7 mps
Duration (Min.) of patency [4, 5]: 23.3 ± 6.7 min
Patency (%) [4, 6]: 100%
Clot (mps) [4, 6]: 19.1 ± 8.5 mps
Duration (Min.) of patency [4, 6]: 35.2 ± 2.2 min
patency and clot size compared to the saline control (in words) ([4]; rabbit, in vivo): significantly prolonged patency and reduced clot size
Cuticle bleeding time, fold increase over pre dose ([1]; rabbit, in vivo): 1.7 ± 0.4 fold

VREVCSEQAEPGPCRAMMKRWYFDVTEGKCAPFIYGGCYGNRNNFDTEEYCAAVCGSA (disulfide 5-55, 14-38, 30-51) [IV-49C]
Cuticle bleeding time, fold increase over pre dose ([1]; 10 minutes after dosing, 2 mg/kg IV bolus): 1.0 ± 1.0 fold
bleeding compared to the saline control (in words) [1]: did not induce prolonged bleeding
